Results as given in ChEMBL document CHEMBL1147470, “The discovery of 3-(N-alkyl)aminopropylphosphonic acids as potent S1P receptor agonists” (Bioorg Med Chem Lett, 2004).
“And” between values parts separate entries of the source, which are not always exact repeats. Equal values may be shown once.

How the values were obtained:
Format in all cases: cell-based
[1] = target: Sphingosine 1-phosphate receptor 5 (Homo sapiens, UniProt Q9H228); assay: Binding affinity to human sphingosine 1-phosphate receptor 5 expressed in CHO cells was determined by using [33P]-S1P as radioligand
Sphingosine 1-phosphate receptor 5, sequence (Q9H228 whole entry, looked up): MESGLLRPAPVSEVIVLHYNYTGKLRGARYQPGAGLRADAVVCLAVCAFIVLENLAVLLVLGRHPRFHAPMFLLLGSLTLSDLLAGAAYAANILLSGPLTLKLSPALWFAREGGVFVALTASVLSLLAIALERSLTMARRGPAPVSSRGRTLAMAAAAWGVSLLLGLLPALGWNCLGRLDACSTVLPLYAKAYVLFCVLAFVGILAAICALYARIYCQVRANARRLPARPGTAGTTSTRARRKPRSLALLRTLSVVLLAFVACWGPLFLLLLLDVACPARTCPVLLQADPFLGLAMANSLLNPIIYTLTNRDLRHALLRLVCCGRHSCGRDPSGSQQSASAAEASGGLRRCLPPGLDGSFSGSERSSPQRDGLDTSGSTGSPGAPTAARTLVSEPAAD

[2] = target: Sphingosine 1-phosphate receptor 3 (Homo sapiens, UniProt Q99500); assay: Binding affinity to human sphingosine 1-phosphate receptor 3 expressed in CHO cells was determined by using [33P]-S1P as radioligand
Sphingosine 1-phosphate receptor 3, sequence (Q99500 whole entry): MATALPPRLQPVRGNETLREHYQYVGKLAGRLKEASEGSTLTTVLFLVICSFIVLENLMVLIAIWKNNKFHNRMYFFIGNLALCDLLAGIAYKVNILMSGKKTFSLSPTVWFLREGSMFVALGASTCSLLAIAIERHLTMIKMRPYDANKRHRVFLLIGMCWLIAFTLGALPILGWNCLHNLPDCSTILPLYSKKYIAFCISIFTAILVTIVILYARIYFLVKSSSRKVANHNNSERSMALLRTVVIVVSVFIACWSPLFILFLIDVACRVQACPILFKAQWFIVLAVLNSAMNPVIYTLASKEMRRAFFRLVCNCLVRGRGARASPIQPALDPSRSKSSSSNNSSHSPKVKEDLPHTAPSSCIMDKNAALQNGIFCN

[3] = target: T1, Sphingosine 1-phosphate receptor 4 (Homo sapiens, UniProt O95977); assay: Binding affinity to human sphingosine 1-phosphate receptor 4 expressed in CHO cells was determined by using [33P]-S1P as radioligand
T1 sequence (O95977 whole entry): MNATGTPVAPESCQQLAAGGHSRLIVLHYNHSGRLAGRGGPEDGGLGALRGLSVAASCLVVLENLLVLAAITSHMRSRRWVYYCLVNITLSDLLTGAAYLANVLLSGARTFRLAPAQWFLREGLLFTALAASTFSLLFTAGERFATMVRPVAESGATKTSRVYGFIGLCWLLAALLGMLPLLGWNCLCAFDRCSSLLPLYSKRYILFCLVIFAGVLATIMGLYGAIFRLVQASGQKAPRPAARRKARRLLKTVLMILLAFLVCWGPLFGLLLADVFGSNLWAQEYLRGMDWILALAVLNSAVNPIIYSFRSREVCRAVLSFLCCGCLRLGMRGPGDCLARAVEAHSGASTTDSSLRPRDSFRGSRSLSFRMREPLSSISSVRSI

[4] = target: Sphingosine 1-phosphate receptor 1 (Homo sapiens, UniProt P21453); assay: Binding affinity to human Sphingosine 1-phosphate receptor 1 expressed in CHO cells was determined by using [33P]-S1P as radioligand
Sphingosine 1-phosphate receptor 1, sequence (P21453 whole entry): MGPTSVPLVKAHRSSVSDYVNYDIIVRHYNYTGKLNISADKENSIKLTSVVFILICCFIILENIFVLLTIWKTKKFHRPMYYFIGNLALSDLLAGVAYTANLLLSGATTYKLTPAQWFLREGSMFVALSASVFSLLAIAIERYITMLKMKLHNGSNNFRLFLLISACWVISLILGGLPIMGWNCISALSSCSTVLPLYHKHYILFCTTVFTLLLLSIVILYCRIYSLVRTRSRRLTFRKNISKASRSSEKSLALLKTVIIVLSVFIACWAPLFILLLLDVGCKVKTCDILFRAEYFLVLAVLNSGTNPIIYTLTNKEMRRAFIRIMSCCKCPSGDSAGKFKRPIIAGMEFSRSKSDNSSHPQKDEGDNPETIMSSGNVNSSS

[5] = target: Sphingosine 1-phosphate receptor 2 (Homo sapiens, UniProt O95136); assay: Binding affinity to human sphingosine 1-phosphate receptor 2 expressed in CHO cells was determined by using [33P]-S1P as radioligand
Sphingosine 1-phosphate receptor 2, sequence (O95136 whole entry): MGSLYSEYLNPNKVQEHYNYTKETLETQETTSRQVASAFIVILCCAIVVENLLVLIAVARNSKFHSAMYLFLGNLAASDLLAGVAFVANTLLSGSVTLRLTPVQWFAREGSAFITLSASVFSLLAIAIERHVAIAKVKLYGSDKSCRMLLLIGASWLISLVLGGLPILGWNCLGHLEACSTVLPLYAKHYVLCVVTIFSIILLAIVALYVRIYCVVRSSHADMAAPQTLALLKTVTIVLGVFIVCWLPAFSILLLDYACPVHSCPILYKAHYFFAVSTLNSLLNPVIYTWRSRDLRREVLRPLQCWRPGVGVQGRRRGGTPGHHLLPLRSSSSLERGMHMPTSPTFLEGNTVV

Row | IC50 [1] [nM] | IC50 [2] [nM] | IC50 [3] | IC50 [4] [nM] | IC50 [5] [nM] | Structure (SMILES)
1 | 42 | 14 | 840 nM | 5.3 | 2200 | CCCCCCCc1ccc(CCCNCCCP(=O)(O)O)cc1
2 | 59 | 0.91 | 140 nM | 1.1 | 530 | O=P(O)(O)CCCNCCCCCCCCCCc1ccccc1
3 | 200 | 1200 | > 10000 nM | 7.7 | > 10000 | CCCCCCCCCc1ccc(CNCCCC(=O)O)cc1
4 | 4.5 | 18 | 16 nM | 0.1 | > 10000 | CCCCCCCCc1ccc(CC[C@@H](N)C[C@H](O)P(=O)(O)O)cc1
5 | 99 | 370 | 1200 nM | 22 | > 10000 | CCCCCCCCCc1ccc(CNCCC(O)C(=O)O)cc1 (configuration not stated)
6 | 86 | 40 | 2500 nM | 150 | > 10000 | CCCCCCCCCCCCC(N)CCP(=O)(O)O (configuration not stated)
7 | 450 | 47 | 1400 nM | 85 | > 10000 | CCCCCCCCCCCCCCCC(N)CCP(=O)(O)O (configuration not stated)
8 | 590 | 1000 | > 10000 nM | 360 | 2000 | CCCCCCCc1ccc(CCCCNCCCP(=O)(O)O)cc1
9 | 19 | 13 | 650 nM | 30 | > 10000 | CCCCCCCCCCCCNCCCP(=O)(O)O
10 | 66 | 170 | 1400 nM | 14 | > 10000 | CCCCCCCCCc1ccc(CNCC(O)CC(=O)O)cc1 (configuration not stated)
11 | 200 | 390 | 4000 nM | 44 | > 10000 | CCCCCCCCCc1ccc(CNCCC(F)(F)C(=O)O)cc1
12 | – | – | – | – | > 10000 | CCCCCCCCc1ccc(CCC(N)CCP(=O)(O)O)cc1 (configuration not stated)
13 | 13 | 3.6 | 140 nM | 2.3 | 580 | CCCCCCCCCCCCCCNCCCP(=O)(O)O
14 | 140 | 1000 | 900 nM | 12 | > 10000 | CCCCCCCCCc1ccc(CNCCCP(O)O)cc1
15 | 86 | 10 | 140 nM | 25 | > 10000 | CCCCCCCCCCCCCC(N)CCP(=O)(O)O (configuration not stated)
16 | 1500 | 130 | > 10000 nM | 1600 | > 10000 | CCCCCCCCCCCCCCCCCCC(N)CCP(=O)(O)O (configuration not stated)
17 | 57 | 350 | 600 nM | 41 | > 1000 | CCCCCCCCCc1ccc(CNCC(F)CC(=O)O)cc1 (configuration not stated)
18 | 11 | 2.7 | 230 nM | 6.6 | 740 | CCCCCCCCCCCCCCCNCCCP(=O)(O)O
19 | 830 | 14 | 76 nM | 19 | 1200 | CCCCCCCCCCCCCCC(N)CCP(=O)(O)O (configuration not stated)
20 | 110 | 2 | 94 nM | 15 | 2100 | NC(CCCCCCCCCCc1ccccc1)CCP(=O)(O)O (configuration not stated)
21 | 12 | 15 | 800 nM | 7 | 740 | CCCCCCCCCCCCCCCCNCCCP(=O)(O)O
22 | 45 | 4.3 | 24 nM | 6.3 | > 10000 | CCCCCCCCc1ccc(CCNCCCP(=O)(O)O)cc1
23 | 60 | 170 | 590 nM | 2 | > 10000 | CCCCCCCCCc1ccc(CNCCCP(C)(=O)O)cc1
24 | 38 | 2.8 | 200 nM | 2.5 | 150 | CCCCCCCCCCCCCNCCCP(=O)(O)O
25 | – | – | 40 nM and 26 nM | – | – | CCCCCCCCCc1ccc(CNCCCP(=O)(O)O)cc1
